Results reported in PubChem BioAssay AID330 (DTP/NCI, 2004).
Where “and” joins values, the source holds several entries; their conditions need not be identical. Identical values can stand only once. Inconclusive results and toxic doses are left out.

Test system: P388 leukemia ip, CD2F1 mice, survival T/C
Experiment: NCI In Vivo Anticancer Drug Screen. Data for tumor model P388 Leukemia (intraperitoneal) in CD2F1 (CDF1) mice
Settings: endpoint: median survival time, higher = longer survival
In short: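 Mice carrying the transplanted tumor received test compound or vehicle. Survival was recorded in each group, and the value is the treated-group measurement divided by that of the vehicle-treated control group.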

[1] = dose: 50.0 mg/kg/injection, schedule: Q01DX009 (ip), vehicle: saline
[2] = dose: 100.0 mg/kg/injection, schedule: Q01DX009 (ip), vehicle: saline
[3] = dose: 200.0 mg/kg/injection, schedule: Q01DX009 (ip), vehicle: saline
[4] = dose: 50.0 mg/kg/injection, schedule: Q01DX005 (ip), vehicle: saline with Tween-80
[5] = dose: 100.0 mg/kg/injection, schedule: Q01DX005 (ip), vehicle: saline with Tween-80
[6] = dose: 50.0 mg/kg/injection, schedule: Q01DX009 (ip), vehicle: saline with Tween-80
[7] = dose: 100.0 mg/kg/injection, schedule: Q01DX009 (ip), vehicle: saline with Tween-80
[8] = dose: 200.0 mg/kg/injection, schedule: Q01DX009 (ip), vehicle: saline with Tween-80
[9] = dose: 200.0 mg/kg/injection, schedule: Q01DX005 (ip), vehicle: saline with Tween-80
[10] = dose: 12.5 mg/kg/injection, schedule: Q01DX009 (ip), vehicle: Klucel (hydroxypropylcellulose) (HPC)
[11] = dose: 50.0 mg/kg/injection, schedule: Q01DX009 (ip), vehicle: Klucel (hydroxypropylcellulose) (HPC)
[12] = dose: 100.0 mg/kg/injection, schedule: Q01DX009 (ip), vehicle: Klucel (hydroxypropylcellulose) (HPC)
[13] = dose: 60.0 mg/kg/injection, schedule: Q01DX005 (ip), vehicle: saline with Tween-80
[14] = dose: 6.25 mg/kg/injection, schedule: Q01DX009 (ip), vehicle: saline with Tween-80
[15] = dose: 12.5 mg/kg/injection, schedule: Q01DX009 (ip), vehicle: saline with Tween-80
[16] = dose: 25.0 mg/kg/injection, schedule: Q01DX009 (ip), vehicle: saline with Tween-80

With `COCCCN1C(=O)/C(=C/c2ccccn2)SC1=S` the T/C [1] was 97 % of control, the T/C [2] was 96 % of control and the T/C [3] was 96 % of control.

With `C/C(=C\c1ccc([N+](=O)[O-])cc1)C(=O)N1CCCCC1` the T/C (dose: 50.0 mg/kg/injection, schedule: Q01DX005 (ip), vehicle: Klucel (hydroxypropylcellulose) (HPC)) was 105 % of control, the T/C (dose: 100.0 mg/kg/injection, schedule: Q01DX005 (ip), vehicle: Klucel (hydroxypropylcellulose) (HPC)) was 96 % of control and the T/C (dose: 200.0 mg/kg/injection, schedule: Q01DX005 (ip), vehicle: Klucel (hydroxypropylcellulose) (HPC)) was 96 % of control.

For `O=C1NC(=O)C2C3C=CC(C12)C1C2C(=O)NC(=O)C2C31` (stereo not given), the T/C (dose: 12.5 mg/kg/injection, schedule: Q01DX009 (ip), vehicle: distilled water + Tween-80) was 116 % of control, the T/C (dose: 25.0 mg/kg/injection, schedule: Q01DX009 (ip), vehicle: distilled water + Tween-80) was 153 % of control and the T/C (dose: 30.0 mg/kg/injection, schedule: Q01DX009 (ip), vehicle: water) was 163 % of control. The T/C (dose: 50.0 mg/kg/injection, schedule: Q01DX009 (ip), vehicle: distilled water + Tween-80) was 193 % of control, the T/C (dose: 100.0 mg/kg/injection, schedule: Q01DX001 (ip), vehicle: saline with Tween-80) was 96 % of control and the T/C (dose: 200.0 mg/kg/injection, schedule: Q01DX001 (ip), vehicle: saline with Tween-80) was 109 % of control. The T/C (dose: 400.0 mg/kg/injection, schedule: Q01DX001 (ip), vehicle: saline with Tween-80) was 119 % of control.

For `CCNc1ccc2c(-c3ccccc3C(=O)O)c3ccc(=[N+](CC)CC)cc-3oc2c1`, the T/C [4] was 105 % of control and the T/C [5] was 95 % of control.

For `CN1C=NNC(=O)c2ccccc21`, the T/C [6] was 86 % of control, the T/C [7] was 87 % of control and the T/C [8] was 102 % of control.

`Cc1cc(=O)n(-c2ccc(S(=O)(=O)Nc3nccs3)cc2)c(C)c1C(=O)O` was tested, and the T/C [4] was 103 % of control, the T/C [5] was 98 % of control and the T/C [9] was 100 % of control.

With `CC(=O)c1nn(-c2ccccc2)c(=Nc2ccccc2)cc1C` the T/C [4] was 100 % of control, the T/C [5] was 101 % of control and the T/C [9] was 98 % of control.

With `CC(C)=C(C#C[Si](C)(C)C)OS(=O)(=O)C(F)(F)F` the T/C [4] was 100 % of control, the T/C [5] was 101 % of control and the T/C [9] was 101 % of control.

`CCOC(=O)C(=CNc1ccc2c(c1)OCO2)C(=O)OCC` was tested, and the T/C (dose: 50.0 mg/kg/injection, schedule: Q01DX005 (ip), vehicle: distilled water + Tween-80 + alcohol) was 100 % of control, the T/C (dose: 100.0 mg/kg/injection, schedule: Q01DX005 (ip), vehicle: distilled water + Tween-80 + alcohol) was 95 % of control and the T/C (dose: 200.0 mg/kg/injection, schedule: Q01DX005 (ip), vehicle: distilled water + Tween-80 + alcohol) was 102 % of control.

With `Cc1ccc(NC(=O)c2cc3ccccc3cc2O)c(C)c1.Cc1ccc(NC(=O)c2cc3ccccc3cc2O)c(C)c1.[Fe+2]` the T/C [1] was 92 % of control, the T/C [2] was 104 % of control and the T/C [3] was 90 % of control.

In the case of `O=C1CCC2CCc3ccccc3N12` (stereo not given), the T/C (dose: 100.0 mg/kg/injection, schedule: Q04DX002 (ip), vehicle: other) is reported as 102 % of control, the T/C (dose: 200.0 mg/kg/injection, schedule: Q04DX002 (ip), vehicle: other) is reported as 96 % of control and the T/C (dose: 400.0 mg/kg/injection, schedule: Q04DX002 (ip), vehicle: other) is reported as 103 % of control.

With `C=C1C(=O)OC2/C=C(\C)CC/C=C(\C)C(OC(=O)C3(C)OC3C)C(O)C12` (stereo not given) the T/C [10] was 96 % of control, the T/C (dose: 25.0 mg/kg/injection, schedule: Q01DX009 (ip), vehicle: Klucel (hydroxypropylcellulose) (HPC)) was 100 % of control and the T/C [11] was 115 % of control. For the same compound, the T/C [12] was 103 % of control.

For `COC(=O)C1=C/C=C\CN(C=O)/C=C\1C(=O)OC`, the T/C (dose: 100.0 mg/kg/injection, schedule: Q01DX001 (ip), vehicle: alcohol) was 101 % of control, the T/C (dose: 200.0 mg/kg/injection, schedule: Q01DX001 (ip), vehicle: alcohol) was 92 % of control and the T/C (dose: 400.0 mg/kg/injection, schedule: Q01DX001 (ip), vehicle: alcohol) was 101 % of control.

For `Brc1cn2[n+](c1)[B-]n1cc(Br)c[n+]1[B-]2`, the T/C (dose: 15.0 mg/kg/injection, schedule: Q01DX005 (ip), vehicle: saline with Tween-80) was 100 % of control, the T/C (dose: 30.0 mg/kg/injection, schedule: Q01DX005 (ip), vehicle: saline with Tween-80) was 100 % of control and the T/C [13] was 100 % of control and 101 % of control.

In the case of `S=C(NCc1cccnc1)Nc1ccc(Cl)c(Cl)c1`, the T/C [11] is reported as 104 % of control, the T/C [12] is reported as 108 % of control and the T/C (dose: 200.0 mg/kg/injection, schedule: Q01DX009 (ip), vehicle: Klucel (hydroxypropylcellulose) (HPC)) is reported as 104 % of control.

`CCOC(=O)c1cnc2ccccc2c1N=[N+]=[N-]` was tested, and the T/C [13] was 94 % of control, the T/C (dose: 120.0 mg/kg/injection, schedule: Q01DX005 (ip), vehicle: saline with Tween-80) was 99 % of control and the T/C (dose: 240.0 mg/kg/injection, schedule: Q01DX005 (ip), vehicle: saline with Tween-80) was 103 % of control.

`O=C(CCl)NNC(=O)CCl` was tested, and the T/C [10] was 117 % of control.

`CC1=C(C(=O)Nc2cc(O)ccc2O)C(c2cccc([N+](=O)[O-])c2)C(C(=O)Nc2cc(O)ccc2O)=C(C)N1` was tested, and the T/C (dose: 7.5 mg/kg/injection, schedule: Q01DX005 (ip), vehicle: Klucel (hydroxypropylcellulose) (HPC)) was 98 % of control, the T/C (dose: 15.0 mg/kg/injection, schedule: Q01DX005 (ip), vehicle: Klucel (hydroxypropylcellulose) (HPC)) was 93 % of control and the T/C (dose: 30.0 mg/kg/injection, schedule: Q01DX005 (ip), vehicle: Klucel (hydroxypropylcellulose) (HPC)) was 100 % of control.

With `CCOC(=O)CSc1nnc(-c2ccc3c(c2)OCO3)o1` the T/C (dose: 62.5 mg/kg/injection, schedule: Q01DX001 (ip), vehicle: Klucel (hydroxypropylcellulose) (HPC)) was 102 % of control, the T/C (dose: 125.0 mg/kg/injection, schedule: Q01DX001 (ip), vehicle: Klucel (hydroxypropylcellulose) (HPC)) was 105 % of control and the T/C (dose: 250.0 mg/kg/injection, schedule: Q01DX001 (ip), vehicle: Klucel (hydroxypropylcellulose) (HPC)) was 108 % of control.

With `CSc1ccc(NC(=O)ON2C(=O)c3ccccc3C2=O)cc1` the T/C [14] was 119 % of control, the T/C [15] was 110 % of control and the T/C [16] was 112 % of control. The T/C [6] was 119 % of control.

`COc1ccc(N=Nc2c(-c3ccccc3)nn(C(=S)S)c2-c2ccccc2)cc1` was tested, and the T/C [4] was 93 % of control, the T/C [5] was 96 % of control and the T/C [9] was 93 % of control.

With `CCOC(=O)c1cc(Cl)cc2c(=O)c3c(O)c4[nH]c5c(C(=O)OCC)cc(Cl)cc5c(=O)c4c(O)c3[nH]c12` the T/C [11] was 97 % of control and the T/C [12] was 106 % of control.

For `C(=NCCN=Cc1ccc2c(c1)OCO2)c1ccc2c(c1)OCO2`, the T/C [16] was 93 % of control, the T/C [6] was 92 % of control and the T/C [7] was 99 % of control. The T/C [8] was 100 % of control.

`CO[C@@H]1[C@@H](O)c2ccccc2N1C(C)=O` was tested, and the T/C (dose: 60.0 mg/kg/injection, schedule: Q01DX005 (ip), vehicle: saline) was 104 % of control, the T/C (dose: 120.0 mg/kg/injection, schedule: Q01DX005 (ip), vehicle: saline) was 102 % of control and the T/C (dose: 240.0 mg/kg/injection, schedule: Q01DX005 (ip), vehicle: saline) was 104 % of control.

In the case of `C=C1CC2(CCCc3ccccc32)OC1=O` (stereo not given), the T/C (dose: 100.0 mg/kg/injection, schedule: Q01DX001 (ip), vehicle: saline) is reported as 101 % of control, the T/C (dose: 200.0 mg/kg/injection, schedule: Q01DX001 (ip), vehicle: saline) is reported as 102 % of control and the T/C (dose: 400.0 mg/kg/injection, schedule: Q01DX001 (ip), vehicle: saline) is reported as 101 % of control.

For `Nc1c(/C=C/c2ccccc2)[nH]c(=O)[nH]c1=O`, the T/C (dose: 25.0 mg/kg/injection, schedule: Q04DX002 (ip), vehicle: saline) was 104 % of control, the T/C (dose: 50.0 mg/kg/injection, schedule: Q04DX002 (ip), vehicle: saline) was 105 % of control and the T/C (dose: 100.0 mg/kg/injection, schedule: Q04DX002 (ip), vehicle: saline) was 121 % of control and 88 % of control.

With `O=c1c2ncccc2cc2n1CCc1c-2[nH]c2ccccc12` the T/C [14] was 88 % of control and the T/C [15] was 86 % of control.

In the case of `O=C(OCc1ccccc1)N1C[C@@H](Br)[C@H](Br)[C@H]1Cc1ccccc1`, the T/C (dose: 100.0 mg/kg/injection, schedule: Q01DX001 (ip), vehicle: distilled water + alcohol) is reported as 95 % of control and the T/C (dose: 200.0 mg/kg/injection, schedule: Q01DX001 (ip), vehicle: distilled water + alcohol) is reported as 100 % of control.
